Structures are written as SMILES. In brackets after ≈: the same amount, converted by molar mass.

Usually solubility (kinetic) stands for solubility judged after dilution from a stock solution rather than from solid.

For this data set the following is noted: buffer; pH 7.4; 200.0 µM.
Consider `CCCCC(CC)CNC(=O)C(=O)C1C(=O)Nc2ccccc21` (stereo not given), for which the kinetic solubility amounted to 26.1 µg/mL (≈ 82.5 µM). `O=C(Nc1ccc(F)cc1)c1cc(Cl)sc1Cl`: the kinetic solubility amounted to 1.9 µg/mL (≈ 6.55 µM). This solubility kinetic lies about 14-fold lower than the previous one. Next, `CC1(C)CC(NC(=O)c2ccc(Cl)cc2)CC(C)(C)N1`: above 44.2 µg/mL; `C=CCN(c1ccccc1OC)S(=O)(=O)c1cccc(C(=O)NC2=NCCS2)c1`: 7.4 µg/mL (≈ 17.1 µM). To `CC(C(=O)NC(c1ccccc1)c1ccccc1)N1CCOCC1` (stereo not given) belongs 44.9 µg/mL (≈ 138 µM); to `Cc1cccc(C)c1NC(=O)CC(C)c1ccccc1` (stereo not given), 12.8 µg/mL (≈ 47.9 µM); to `Cc1nnc(SCC(=O)NC2CC2)n1CC1CCCO1` (stereo not given), above 44.5 µg/mL. To `O=C(Nc1ccc(N2CCOCC2)cc1N1CCOCC1)c1ccccc1` belongs above 55.1 µg/mL. Turning to `CC(C)CN(C(=O)CSc1nc(N)cc(N)n1)C1CCS(=O)(=O)C1` (stereo not given), the solubility (kinetic) was above 56 µg/mL. For `Cc1ccc2c(c1)C1(OCCCO1)C(=O)N2CC#N`, the kinetic solubility worked out at 37.6 µg/mL (≈ 146 µM). The compound `c1ccc2c(CN3CCCCC3)c[nH]c2c1` returned a solubility (kinetic) above 32.1 µg/mL. To `O=C(O)Cn1cc(C=C2C(=O)NC(=O)NC2=O)c2ccccc21` belongs above 47 µg/mL; to `CCOC(=O)C1=C(C)NC(=S)NC1c1ccco1` (stereo not given), 39.9 µg/mL (≈ 150 µM).

Compound `CN(Cc1ccccc1)C(=O)COC(=O)COc1ccc(C#N)cc1` registered a solubility (kinetic) above 50.8 µg/mL.

As for `CC(=O)c1ccn(S(=O)(=O)c2ccc(Cl)cc2)c1`, the solubility (kinetic) amounted to 33.9 µg/mL (≈ 119 µM). In turn, `COc1ccccc1NC(=O)c1cc(C)oc1C` displayed a solubility (kinetic) above 36.8 µg/mL. `COc1ccccc1OCCC(=O)Nc1ccc2c(c1)OCO2` registered a solubility (kinetic) above 47.3 µg/mL. Compound `O=C(Nc1ccc2ccccc2c1)c1ccccc1F` registered a kinetic solubility below 0.6 µg/mL. Consider `O=C(NC(=S)NCc1ccccc1Cl)c1cccs1`, for which the kinetic solubility amounted to 3.2 µg/mL (≈ 10.3 µM). For the compound `CC(Sc1nnc(C(F)(F)F)n1C)C(=O)Nc1ccc(N2CCOCC2)cc1` (stereo not given), the solubility (kinetic) is above 62.3 µg/mL. Next, `O=C(COC(=O)c1ccc([N+](=O)[O-])o1)NC12CC3CC(CC(C3)C1)C2`: above 52.3 µg/mL.

For `O=C(O)CC1(CC(=O)Nc2ccc3c(c2)C(=O)OC3)CCCCC1`, the solubility (kinetic) is above 49.7 µg/mL.

Consider `C=CCSc1nc(C)c(CC(=C)C)c(=O)[nH]1`, for which the solubility (kinetic) stood at 32.2 µg/mL (≈ 136 µM). To `Cc1ccc(NC(=O)C2CC2c2ccccc2)cc1` (stereo not given) belongs 2.4 µg/mL (≈ 9.55 µM); to `O=C(Nc1ccccc1)OCCCCCOC(=O)Nc1ccccc1`, below 0.4 µg/mL. Regarding `O=C(N/C(=C\c1ccc(Cl)cc1)C(=O)N1CCOCC1)c1ccco1`, the kinetic solubility is above 54.1 µg/mL. To `CCCn1c(=O)[nH]c(=O)c2[nH]cnc21` belongs above 29.1 µg/mL; to `COc1cccc(CN(C)C(=O)c2cc(S(=O)(=O)N3CCCC3)ccc2C)c1OC`, above 64.9 µg/mL; to `Cc1ccc(NC(=S)NC2CCCC2)c(C)c1`, 33.3 µg/mL (≈ 134 µM). To `Cn1cccc1/C=C(\C#N)c1ccccc1` belongs 15.4 µg/mL (≈ 73.9 µM); to `CC(C)Oc1ccc(C2NC(=O)c3ccccc3O2)cc1` (stereo not given), 2.6 µg/mL (≈ 9.18 µM). To `Cc1cc(Cl)ccc1NS(=O)(=O)c1c(C)[nH]c(=O)[nH]c1=O` belongs above 49.5 µg/mL; to `CCOC(=O)c1c(C)[nH]c(C(=O)NCc2ccccn2)c1C`, 15.5 µg/mL (≈ 51.4 µM). In the case of `CC1SCC(=NOCc2ccccc2)CS1` (stereo not given), the kinetic solubility was 11.5 µg/mL (≈ 45.4 µM). To `Cc1ccc(-c2nc3cc(N)ccc3o2)cc1Br` belongs 0.3 µg/mL (≈ 0.99 µM); to `CC1COC(Cn2c3ccccc3c3ccccc32)O1` (stereo not given), 12.1 µg/mL (≈ 45.3 µM). To `Cc1cccc(-c2cc(C(=O)Nc3ccncc3)c3ccccc3n2)c1` belongs 0.8 µg/mL (≈ 2.36 µM); to `Cc1nn(-c2ccccc2)c(-c2ccccc2[N+](=O)[O-])c1C(=O)O`, above 48.5 µg/mL.

Consider `O=c1[nH]c(=S)n(-c2ccc(F)cc2)c(O)c1/C=N/N1CCOCC1`, for which the solubility (kinetic) is above 52.6 µg/mL. With `O=C(NCCc1ccc(Cl)cc1Cl)c1ccc2nc[nH]c2c1`, the kinetic solubility is 33.2 µg/mL (≈ 99.3 µM).

`O=C(/C=C/c1ccco1)NC(=S)N1CCCCC1` returned a solubility (kinetic) of 27.4 µg/mL (≈ 104 µM). This solubility kinetic and that of the compound before are within 1.5-fold of each other. Next, `COc1ccc(S(=O)(=O)NC2CCCC2)cc1NC(C)=O`: above 46.9 µg/mL; `COC(=O)CC1=C(C(=O)OC)[C@@H](c2ccccc2[N+](=O)[O-])C(C#N)=C(N)O1`: above 56 µg/mL; `CCc1nnc(SC(C)C(=O)Nc2nccs2)n1C` (stereo not given): above 44.6 µg/mL. To `CCCNC(=O)C(=O)NCC1CCCN1CC` (stereo not given) belongs 36 µg/mL (≈ 149 µM); to `CC(NC(=O)CN(C)CC(=O)Nc1cccc(F)c1)c1ccccc1` (stereo not given), above 51.5 µg/mL. To `O=C(Nc1cc(C(F)(F)F)ccc1Cl)c1cccnc1` belongs 32.7 µg/mL (≈ 109 µM); to `Cc1ccc(C(=O)NC(=S)NCc2ccccc2)cc1Br`, 0.4 µg/mL (≈ 1.1 µM).

Turning to `COc1ccc(C(C)NC(=O)Nc2ccc(C(C)=O)cc2)cc1OC` (stereo not given), the kinetic solubility stood at 47 µg/mL (≈ 137 µM). Against the preceding compound, the solubility kinetic is about 120-fold higher.

The compound `CCN(CC(=O)NCc1cccs1)C(=O)c1cccc(Cl)c1` registered a solubility (kinetic) above 50.5 µg/mL. Next, `CCn1c(=S)[nH]c2cc(Cl)ccc21`: above 31.9 µg/mL; `COc1ccc(C(=O)OCC(=O)NC2CCCC2)c(OC)c1OC`: above 50.6 µg/mL; `Clc1ccc(CN2CCSCC2)cc1Cl`: 2.6 µg/mL (≈ 9.92 µM). In turn, `CCOC(=O)C1CCCN(C(=O)CSc2nnc3nc(C)cc(C)n23)C1` (stereo not given) gave a kinetic solubility above 56.6 µg/mL. To `COC(=O)CCC(=O)Nc1ccc2oc3c(c2c1)CCCC3` belongs 43.5 µg/mL (≈ 144 µM); to `Cc1cc2oc(C(=O)NCc3ccccc3)cc(=O)c2cc1C`, 0.9 µg/mL (≈ 2.93 µM); to `NC(=O)COC(=O)c1cc([N+](=O)[O-])ccc1NCCO`, above 42.5 µg/mL. To `COc1ccc(C(C)=O)cc1CSc1ccccn1` belongs 37.7 µg/mL (≈ 138 µM); to `O=C(O)CSc1nc2sc3c(c2c(=O)n1-c1ccccc1)CCC3`, above 53.8 µg/mL. As to `CC1=NCCN1CCNC(=O)Nc1ccc(C(C)(C)C)cc1`, the solubility (kinetic) is above 45.4 µg/mL. To `Cc1ccc(Nc2cc(C)nc(-c3ccccc3)n2)cc1` belongs 5.2 µg/mL (≈ 18.9 µM). To `CSC1=N/C(=C/c2cccnc2)C(=O)N1Cc1ccc(Cl)cc1` belongs 1.1 µg/mL (≈ 3.2 µM). Next, `CCS(=O)(=O)c1ncc(CO)n1CCc1ccccc1`: above 44.2 µg/mL; `O=C(Oc1ccc(OC(=O)N2CCCCC2)cc1)N1CCCCC1`: 1.1 µg/mL (≈ 3.31 µM); `O=C(c1ccccc1F)N1CCCC(C(=O)N2CCc3ccccc3C2)C1` (stereo not given): 51.3 µg/mL (≈ 140 µM). As to `Cc1ccc(NC(=O)CNC(=O)c2ccco2)cc1`, the kinetic solubility was above 38.7 µg/mL. Compound `O=C(COc1cccnc1[N+](=O)[O-])c1ccc(Cl)s1` showed a solubility (kinetic) of 37.2 µg/mL (≈ 125 µM). With `O=C(CNC(=O)c1ccccc1F)c1ccccc1`, the solubility (kinetic) came to 32.5 µg/mL (≈ 126 µM). Next, `COC(=O)C1=C(O)/C(=C/c2cccc(OC)c2O)N=C1C`: 35.1 µg/mL (≈ 121 µM); `Cl.N=C(N)SCc1ccc(O)c([N+](=O)[O-])c1`: above 39.6 µg/mL. Consider `COc1ccccc1OCc1ccc(C(=O)NC(C)c2ccccc2)o1` (stereo not given), for which the solubility (kinetic) came out at 38.1 µg/mL (≈ 108 µM).

`CC(C)(C)c1ccccc1NC(=O)CN1C(=O)NC2(CCCC2)C1=O` gave a kinetic solubility of 6.1 µg/mL (≈ 17.8 µM). To `CCC(=O)c1ccc(Oc2nc3c(c(=O)n(C)c(=O)n3C)n2CC)cc1` belongs 19.6 µg/mL (≈ 55 µM); to `O=S(=O)(c1ccc(F)cc1)N1CC=C(c2ccccc2)CC1`, 2.6 µg/mL (≈ 8.19 µM).

`CC(C)=CC(=O)OCC(=O)Nc1ccc(Cl)cc1` displayed a solubility (kinetic) of 36.3 µg/mL (≈ 136 µM). Next, `CN(C(=O)COC(=O)CCC(=O)c1ccc(F)cc1)C1CCCCC1`: above 52.4 µg/mL; `Br.O=[N+]([O-])c1ccc(CSC2=NCCN2)cc1`: 43.2 µg/mL. For the compound `O=C(Nc1ccc(S(=O)(=O)Nc2ccccn2)cc1)C(F)(F)F`, the solubility (kinetic) was above 51.8 µg/mL. Next, `COc1cc(NC(=S)N2CCCC2)cc(OC)c1`: 34.8 µg/mL (≈ 131 µM). To `CC1=C(C#N)C(c2ccc(O)cc2)C(C#N)=C(C)N1` belongs above 37.7 µg/mL.

With `O=C1C=C(N2CCOCC2)C2(CCCCC2)O1`, the solubility (kinetic) was above 35.6 µg/mL. To `O=C(CCCOC(=O)c1cccnc1Cl)c1ccc(Br)cc1` belongs 6.6 µg/mL (≈ 17.2 µM). Next, `CCC(C)NC(=O)Cn1nc(C(F)(F)F)c2c1CCC2` (stereo not given): above 43.4 µg/mL. As to `CCC(=O)c1c(NC(C)C)cc(C)oc1=O`, the solubility (kinetic) is above 33.5 µg/mL. Next, `NCC(=O)CCC(=O)O`: 18.6 µg/mL (≈ 142 µM). Next, `Cc1ccc(NC(=O)Cn2ccc(=O)[nH]c2=O)cc1`: above 38.9 µg/mL; `COC(=O)c1ccc2c(=O)[nH]c(COC(=O)c3[nH]c(C)c(C(C)=O)c3C)nc2c1`: 18.1 µg/mL (≈ 45.5 µM). For the compound `COc1ccc2cc(C(C)C(=O)N3CCC(C(N)=O)CC3)ccc2c1` (stereo not given), the kinetic solubility was above 51.1 µg/mL. Next, `Cc1cccc(NC(=S)NCCc2ccccn2)c1`: above 40.7 µg/mL; `COC(=O)[C@H](C)NC(=O)NCc1ccc(S(N)(=O)=O)cc1`: above 47.3 µg/mL; `CC(C)c1ccc(NC(=S)N2CCCC2)cc1`: above 37.3 µg/mL. To `O=C(OCc1ccc(Cl)c(Cl)c1)c1ccc[nH]1` belongs 1.9 µg/mL (≈ 7.03 µM); to `CCCCNC(=O)COC(=O)c1ccc(C)c(NC(=O)c2ccco2)c1`, 17.8 µg/mL (≈ 49.7 µM); to `CN1CCN(c2nc3ccccn3c(=O)c2C=C(C#N)C#N)CC1`, 48 µg/mL (≈ 150 µM).

Regarding `CCOC(=O)c1cc(CC)sc1NC(=O)COC(=O)C1CCC1`, the solubility (kinetic) is below 0.7 µg/mL. As to `CC(C)C(=O)NC(CC(=O)O)c1ccccc1` (stereo not given), the kinetic solubility was above 35.3 µg/mL.

As to `CC1CCCCN1C(=O)CSc1nc(C2CC2)nc2ccccc12` (stereo not given), the solubility (kinetic) is above 51.2 µg/mL. To `O=C(Nc1ccccc1C(F)(F)F)c1ccccn1` belongs 6.7 µg/mL (≈ 25.2 µM). To `CN(C(=O)CSc1ncn[nH]1)C1(C#N)CCCCC1` belongs above 41.9 µg/mL; to `OC(CNC1Cc2ccccc2C1)c1ccccc1` (stereo not given), above 38 µg/mL; to `O=C(CSc1nc(C2CC2)nc2ccccc12)Nc1cccc(O)c1`, below 0.3 µg/mL.

Turning to `O=C(O)C1=C(C(=O)Nc2cc(C(F)(F)F)ccc2Cl)CCCC1`, the solubility (kinetic) is 12.5 µg/mL (≈ 35.9 µM).

With `N#Cc1ccc(NC(=O)c2cc(-c3cccs3)on2)cc1`, the kinetic solubility was below 0.2 µg/mL.

As for `CC1CCN(C(=O)c2ccc([N+](=O)[O-])o2)CC1`, the solubility (kinetic) was above 35.7 µg/mL.

Consider `CC1CN(Cc2cc(=O)oc3cc(O)c(Cl)cc23)CC(C)O1` (stereo not given), for which the kinetic solubility is 41 µg/mL (≈ 127 µM).
